Tests used:
Assay in all cases: relative viability (nuclei count vs DMSO), 5 days (fraction); higher = more cells survive
[1] = compound: C1=CC(=CC=C1C2=CC(=C(S2)NC(=O)N)C(=O)N)F [TPCA-1] + COc1cc2c(Oc3ccc(NC(=O)C4(C(=O)Nc5ccc(F)cc5)CC4)cc3F)ccnc2cc1OCCCN1CCOCC1 [Foretinib] (partner 0.25 µM)
How it was run: (§1)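 Values are medians from duplicate plates. Each reflects relative viability, defined as the nuclei count of treated wells over that of vehicle wells. Lung cancer cell lines in 1536-well plates were pin-tool dosed one day after seeding with one drug alone or with a fixed anchor-drug dose plus five library-drug doses (not always all listed) in √10 steps, then fixed, stained and imaged at 4× after 5 days.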

[2] = compound: C1=CC(=CC=C1C2=CC(=C(S2)NC(=O)N)C(=O)N)F [TPCA-1] + Nc1nc2[nH]cc(CCc3ccc(C(=O)N[C@@H](CCC(=O)O)C(=O)O)cc3)c2c(=O)[nH]1 [Pemetrexed] (partner 0.2 µM)
How it was run: as §1

[3] = compound: C[C@]12O[C@H](C[C@]1(O)CO)n1c3ccccc3c3c4c(c5c6ccccc6n2c5c31)CNC4=O [Lestaurtinib] + Cc1nc(Nc2ncc(C(=O)Nc3c(C)cccc3Cl)s2)cc(N2CCN(CCO)CC2)n1 [Dasatinib] (partner 0.075 µM)
How it was run: as §1

[4] = compound: C[C@]12O[C@H](C[C@]1(O)CO)n1c3ccccc3c3c4c(c5c6ccccc6n2c5c31)CNC4=O [Lestaurtinib] + Nc1nc2[nH]cc(CCc3ccc(C(=O)N[C@@H](CCC(=O)O)C(=O)O)cc3)c2c(=O)[nH]1 [Pemetrexed] (partner 0.2 µM)
How it was run: as §1

| Cell Line | relative viability ([1]; first compound 0.04 µM) | relative viability ([1]; first compound 0.1265 µM) | relative viability ([1]; first compound 0.4 µM) | relative viability ([1]; first compound 1.265 µM) | relative viability ([1]; first compound 4 µM) | relative viability ([2]; first compound 0.1265 µM) | relative viability ([2]; first compound 0.4 µM) | relative viability ([2]; first compound 1.265 µM) | relative viability ([2]; first compound 4 µM) | relative viability ([3]; first compound 0.005 µM) | relative viability ([3]; first compound 0.01581 µM) | relative viability ([3]; first compound 0.05 µM) | relative viability ([3]; first compound 0.1581 µM) | relative viability ([3]; first compound 0.5 µM) | relative viability ([4]; first compound 0.005 µM) | relative viability ([4]; first compound 0.01581 µM) | relative viability ([4]; first compound 0.05 µM) | relative viability ([4]; first compound 0.1581 µM) | relative viability ([4]; first compound 0.5 µM) | relative viability ([2]; first compound 0.04 µM) |
| --- | --- | --- | --- | --- | --- | --- | --- | --- | --- | --- | --- | --- | --- | --- | --- | --- | --- | --- | --- | --- |
| HCC-366 | 0.921 | 0.86 | 0.922 | 0.851 | 0.654 | 0.17 | 0.155 | 0.116 | 0.145 | 0.74 | 0.659 | 0.518 | 0.516 | 0.185 | 0.158 | 0.168 | 0.157 | 0.163 | 0.104 | – |
| HCC-827 | 1.14 | 1.03 | 1.06 | 0.873 | 0.443 | 0.267 | 0.281 | 0.256 | 0.276 | 0.428 | 0.323 | 0.256 | 0.318 | 0.246 | 0.234 | 0.234 | 0.26 | 0.28 | 0.196 | 0.252 |
| HOP-62 | 1.19 | 1.09 | 1.17 | 1.06 | 1.06 | 0.346 | 0.299 | 0.271 | 0.216 | 0.66 | 0.721 | 0.504 | 0.499 | 0.241 | 0.269 | 0.322 | 0.309 | 0.339 | 0.22 | 0.269 |
| IA-LM | 1.14 | 1.02 | 1.09 | 1.01 | 0.885 | – | – | – | – | – | – | – | – | – | – | – | – | – | – | – |
| LC-2-ad | 1.06 | 0.88 | 0.818 | 0.845 | 0.552 | 0.299 | 0.27 | 0.283 | 0.206 | 0.618 | 0.831 | 0.258 | 0.281 | 0.256 | 0.258 | 0.277 | 0.252 | 0.258 | 0.186 | 0.262 |
| LCLC-97TM1 | 1.11 | 0.877 | 0.94 | 0.633 | 0.587 | 0.186 | 0.163 | 0.153 | 0.154 | 0.841 | 0.853 | 0.629 | 0.753 | 0.191 | – | 0.183 | 0.149 | 0.146 | 0.132 | 0.17 |
| LCLC-103H | 0.899 | 0.813 | 0.758 | 0.839 | 0.64 | 0.426 | 0.464 | 0.398 | 0.432 | 0.474 | 0.464 | 0.405 | 0.325 | 0.224 | 0.418 | 0.484 | 0.469 | 0.472 | 0.412 | 0.522 |
| LK-2 | 1.5 | 0.969 | 1.14 | 1.14 | 0.729 | – | 0.253 | 0.232 | 0.141 | 0.296 | 0.255 | 0.241 | 0.275 | 0.158 | 0.302 | 0.444 | 0.255 | 0.302 | 0.139 | 0.268 |
| LOU-NH91 | 0.984 | 0.887 | 0.971 | 0.97 | 0.803 | 0.376 | 0.389 | 0.392 | 0.532 | 0.581 | 0.575 | 0.415 | 0.397 | 0.372 | 0.413 | 0.509 | 0.448 | 0.583 | 0.338 | 0.399 |
| LU99A | 0.917 | 0.745 | 0.78 | 0.636 | 0.436 | 0.162 | 0.196 | 0.167 | 0.198 | 0.518 | 0.528 | 0.387 | 0.298 | 0.215 | 0.152 | 0.153 | 0.217 | 0.14 | 0.128 | 0.17 |
| LXF-289 | 0.972 | 0.966 | 0.89 | 0.981 | 0.692 | 0.869 | 0.903 | 0.877 | 0.535 | 0.21 | 0.275 | 0.146 | 0.154 | 0.0882 | 0.872 | 0.931 | 0.631 | 0.771 | 0.21 | 0.883 |
| NCI-H23 | 0.947 | 0.934 | 0.935 | 1.08 | 0.867 | 0.668 | 0.72 | 0.61 | 0.235 | 0.856 | 0.911 | 0.739 | 0.847 | 0.483 | 0.622 | 0.787 | 0.503 | 0.449 | 0.292 | 0.614 |
| NCI-H322M | 1.2 | 0.973 | 1.01 | 0.998 | 0.633 | 0.481 | 0.57 | 0.566 | 0.497 | 0.233 | 0.279 | 0.277 | 0.293 | 0.339 | 0.599 | 0.606 | – | 0.592 | 0.445 | 0.614 |
| NCI-H522 | – | – | – | – | – | 0.765 | 1.15 | 1.14 | 0.975 | 0.798 | 0.807 | 0.934 | 0.821 | 0.493 | 1.01 | 1.08 | 1.01 | 0.784 | 0.502 | 1.21 |
| NCI-H727 | 1.01 | 0.922 | 0.738 | 0.788 | 0.829 | – | – | – | – | 0.402 | 0.285 | 0.459 | 0.542 | 0.231 | – | – | – | – | – | – |
| NCI-H1299 | 1.07 | 1.07 | 1.03 | 1.09 | 1.07 | – | – | – | – | – | – | – | – | – | – | – | – | – | – | – |
| NCI-H1623 | 0.824 | 0.757 | 0.937 | 0.973 | 0.644 | – | – | – | – | 0.493 | 0.576 | 0.584 | 0.513 | 0.497 | – | – | – | – | – | – |
| NCI-H1648 | – | – | – | – | – | 0.702 | 0.769 | 0.76 | 0.809 | – | – | – | – | – | – | 0.806 | – | 1 | 0.606 | 0.824 |
| NCI-H1703 | 0.308 | 0.33 | 0.315 | – | 0.302 | – | – | – | – | – | – | – | – | – | – | – | – | – | – | – |
| NCI-H1792 | – | – | – | – | – | 0.721 | 0.764 | 0.672 | 0.222 | 1.04 | 1.33 | 0.65 | 0.835 | 0.616 | 0.748 | 1.15 | 0.257 | 0.371 | 0.31 | 1.24 |

Reference: the supplement of paper PMC10307832
